# Experiments:
# [1] = target: Bone morphogenetic protein receptor type-1B (Homo sapiens) (UniProt O00238); assay: Inhibition of recombinant human ALK6 (148 to end residues) at 1 uM using casein as substrate after 40 mins in presence of [gamma-33P]ATP by scintillation counting method
# [2] = target: Mitogen-activated protein kinase kinase kinase 5 (Homo sapiens) (UniProt Q99683); assay: Inhibition of recombinant human ASK1 (649 to 946 residues) at 1 uM using myelin basic protein as substrate after 40 mins in presence of [gamma-33P]ATP by scintillation counting method
# [3] = target: Serine/threonine-protein kinase 35 (Homo sapiens) (UniProt Q8TDR2); assay: Inhibition of recombinant full-length human CLIK1 at 1 uM using RSRSRSRSRSRSRSR as substrate after 40 mins in presence of [gamma-33P]ATP by scintillation counting method
# Chain of Serine/threonine-protein kinase 35 (Homo sapiens) (Q8TDR2 whole entry, the tested form may be a part): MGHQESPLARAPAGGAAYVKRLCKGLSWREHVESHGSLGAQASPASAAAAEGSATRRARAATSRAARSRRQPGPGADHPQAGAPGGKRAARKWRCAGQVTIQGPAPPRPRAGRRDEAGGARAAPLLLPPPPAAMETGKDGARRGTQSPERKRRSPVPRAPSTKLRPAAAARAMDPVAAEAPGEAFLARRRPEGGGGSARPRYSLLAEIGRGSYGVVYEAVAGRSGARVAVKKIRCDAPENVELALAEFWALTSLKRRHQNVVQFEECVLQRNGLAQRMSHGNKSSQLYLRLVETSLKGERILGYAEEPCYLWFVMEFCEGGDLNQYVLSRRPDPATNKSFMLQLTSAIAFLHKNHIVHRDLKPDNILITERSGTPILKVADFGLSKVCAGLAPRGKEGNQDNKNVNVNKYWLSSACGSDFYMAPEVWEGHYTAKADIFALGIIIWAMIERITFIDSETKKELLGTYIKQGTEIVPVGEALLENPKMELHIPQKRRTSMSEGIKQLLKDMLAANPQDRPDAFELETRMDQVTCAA
# [4] = target: Serine/threonine-protein kinase TAO3 (Homo sapiens) (UniProt Q9H2K8); assay: Inhibition of recombinant human TAO3 (1 to 411 residues) at 1 uM using myelin basic protein as substrate after 40 mins in presence of [gamma-33P]ATP by scintillation counting method
# [5] = tested on: Tyrosine-protein kinase ABL1 (Homo sapiens), P00519 [M351T]; assay: Inhibition of recombinant human Abl M351T mutant (27 to end residues) at 1 uM using EAIYAAPFAKKK as substrate after 40 mins in presence of [gamma-33P]ATP by scintillation counting method
# [6] = Metabolic stability in human liver microsomes assessed as compound remaining at 1 uM in presence of NADPH as cofactor measured after 30 mins by LC-MS/MS method; format: ADME, microsome; conditions: read-out: Stability
# [7] = target: Misshapen-like kinase 1 (Homo sapiens) (UniProt Q8N4C8); assay: Inhibition of recombinant human MINK (1 to 310 residues) at 1 uM using myelin basic protein as substrate after 40 mins in presence of [gamma-33P]ATP by scintillation counting method
# [8] = target: Tyrosine-protein kinase Fer (Homo sapiens) (UniProt P16591); assay: Inhibition of recombinant human FER (541 to end residues) at 1 uM using KKKSPGEYVNIEFG as substrate after 40 mins in presence of [gamma-33P]ATP by scintillation counting method
# Chain of Tyrosine-protein kinase Fer (Homo sapiens) (P16591 whole entry, looked up): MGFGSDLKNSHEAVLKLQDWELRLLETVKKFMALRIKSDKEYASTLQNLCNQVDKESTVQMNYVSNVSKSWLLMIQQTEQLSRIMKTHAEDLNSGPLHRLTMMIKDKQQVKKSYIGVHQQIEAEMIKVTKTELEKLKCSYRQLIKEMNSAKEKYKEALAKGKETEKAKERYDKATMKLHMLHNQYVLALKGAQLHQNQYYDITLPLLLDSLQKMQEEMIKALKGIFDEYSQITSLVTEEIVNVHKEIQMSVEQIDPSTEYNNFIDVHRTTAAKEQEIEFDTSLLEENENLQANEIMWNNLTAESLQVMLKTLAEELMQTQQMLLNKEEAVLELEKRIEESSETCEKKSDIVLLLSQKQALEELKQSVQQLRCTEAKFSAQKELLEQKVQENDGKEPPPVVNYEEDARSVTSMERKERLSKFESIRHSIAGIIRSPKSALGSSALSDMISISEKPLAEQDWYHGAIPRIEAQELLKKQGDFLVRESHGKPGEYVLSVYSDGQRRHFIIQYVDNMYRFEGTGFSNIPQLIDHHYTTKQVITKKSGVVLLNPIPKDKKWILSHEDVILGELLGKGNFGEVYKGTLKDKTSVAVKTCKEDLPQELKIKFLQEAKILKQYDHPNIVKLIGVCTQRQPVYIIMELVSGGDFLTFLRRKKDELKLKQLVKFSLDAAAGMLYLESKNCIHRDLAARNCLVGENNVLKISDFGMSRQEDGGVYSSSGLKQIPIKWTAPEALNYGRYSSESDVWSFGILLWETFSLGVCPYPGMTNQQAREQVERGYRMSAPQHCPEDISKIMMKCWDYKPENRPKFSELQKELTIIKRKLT
# [9] = target: Calcium/calmodulin-dependent protein kinase type 1D (Homo sapiens) (UniProt Q8IU85); assay: Inhibition of recombinant full-length human CAMK1delta at 1 uM using […] after 40 mins in presence of [gamma-33P]ATP by scintillation counting method
# [10] = target: Phosphorylase b kinase gamma catalytic chain, skeletal muscle/heart isoform (Homo sapiens) (UniProt Q16816); assay: Inhibition of recombinant full-length human PhKgamma1 at 1 uM using KKLNRTLSFAEPG as substrate after 120 mins in presence of [gamma-33P]ATP by scintillation counting method
# [11] = target: Platelet-derived growth factor receptor alpha (Homo sapiens) (UniProt P16234); assay: Inhibition of recombinant human PDGFRalpha (550 to end residues) at 1 uM using poly(Glu,Tyr) 4:1 as substrate after 40 mins in presence of [gamma-33P]ATP by scintillation counting method
# [12] = tested on: Ribosomal protein S6 kinase beta-1 (Homo sapiens), P23443 [T412E]; assay: Inhibition of recombinant human p70S6K T412E mutant (1 to 421 residues) at 1 uM using KKRNRTLTV as substrate after 40 mins in presence of [gamma-33P]ATP by scintillation counting method
# Chain of Ribosomal protein S6 kinase beta-1 (Homo sapiens), P23443 [T412E] (P23443 whole entry T412E, looked up, the tested form may be a part): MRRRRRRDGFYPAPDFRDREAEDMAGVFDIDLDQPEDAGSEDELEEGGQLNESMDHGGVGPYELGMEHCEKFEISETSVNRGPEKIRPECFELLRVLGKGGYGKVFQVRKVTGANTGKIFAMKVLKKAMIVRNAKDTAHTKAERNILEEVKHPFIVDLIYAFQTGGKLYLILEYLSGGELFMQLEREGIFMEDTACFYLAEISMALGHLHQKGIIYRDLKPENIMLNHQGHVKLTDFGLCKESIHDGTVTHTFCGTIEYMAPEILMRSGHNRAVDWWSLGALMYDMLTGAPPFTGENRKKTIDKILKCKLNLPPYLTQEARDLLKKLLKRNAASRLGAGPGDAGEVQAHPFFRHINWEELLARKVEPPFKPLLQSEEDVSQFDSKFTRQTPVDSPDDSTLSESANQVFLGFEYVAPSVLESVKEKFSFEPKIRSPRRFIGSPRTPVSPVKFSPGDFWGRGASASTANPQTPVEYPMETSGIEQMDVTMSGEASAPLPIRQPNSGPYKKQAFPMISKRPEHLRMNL
# [13] = target: Serine/threonine-protein kinase WNK3 (Homo sapiens) (UniProt Q9BYP7); assay: Inhibition of recombinant human WNK3 (1 to 434 residues) at 1 uM using myelin basic protein as substrate after 40 mins in presence of [gamma-33P]ATP by scintillation counting method
# [14] = target: Tyrosine-protein kinase Tec (Homo sapiens) (UniProt P42680); assay: Inhibition of recombinant activated human Tec (174 to end residues) at 1 uM using EFPIYDFLPAKKK as substrate after 40 mins in presence of [gamma-33P]ATP by scintillation counting method
# [15] = target: RAF proto-oncogene serine/threonine-protein kinase (Homo sapiens) (UniProt P04049); assay: Inhibition of recombinant human c-RAF (306 to end residues) at 1 uM using inactive MEK1 as substrate after 40 mins in presence of [gamma-33P]ATP by scintillation counting method
# Chain of RAF proto-oncogene serine/threonine-protein kinase (Homo sapiens) (P04049 whole entry): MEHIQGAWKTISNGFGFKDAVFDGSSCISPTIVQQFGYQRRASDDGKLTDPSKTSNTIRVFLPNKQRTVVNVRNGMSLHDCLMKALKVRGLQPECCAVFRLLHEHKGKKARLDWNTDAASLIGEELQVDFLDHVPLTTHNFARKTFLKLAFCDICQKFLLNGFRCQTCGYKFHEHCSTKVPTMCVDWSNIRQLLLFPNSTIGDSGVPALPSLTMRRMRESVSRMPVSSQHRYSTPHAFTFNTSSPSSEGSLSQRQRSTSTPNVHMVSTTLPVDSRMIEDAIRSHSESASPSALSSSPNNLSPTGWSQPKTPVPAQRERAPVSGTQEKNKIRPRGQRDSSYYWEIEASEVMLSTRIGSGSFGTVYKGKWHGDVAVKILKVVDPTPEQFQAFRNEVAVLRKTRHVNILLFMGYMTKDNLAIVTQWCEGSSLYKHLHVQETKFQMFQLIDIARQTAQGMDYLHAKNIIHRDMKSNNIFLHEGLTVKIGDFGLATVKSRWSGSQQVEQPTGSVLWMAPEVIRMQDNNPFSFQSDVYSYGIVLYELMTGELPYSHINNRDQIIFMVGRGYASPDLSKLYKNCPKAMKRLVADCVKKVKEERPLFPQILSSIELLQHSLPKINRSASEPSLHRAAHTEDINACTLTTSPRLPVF
# [16] = target: MAP/microtubule affinity-regulating kinase 4 (Homo sapiens) (UniProt Q96L34); assay: Inhibition of recombinant full-length human MARK4 at 1 uM using KKKVSRSGLYRSPSMPENLNRPR as substrate after 40 mins in presence of [gamma-33P]ATP by scintillation counting method
# [17] = target: Wee1-like protein kinase 2 (Homo sapiens) (UniProt P0C1S8); assay: Inhibition of recombinant full-length human Wee1B at 1 uM using LSNLYHQGKFLQTFCGSPLYRRR as substrate after 120 mins in presence of [gamma-33P]ATP by scintillation counting method
# Chain of Wee1-like protein kinase 2 (Homo sapiens) (P0C1S8 whole entry, looked up): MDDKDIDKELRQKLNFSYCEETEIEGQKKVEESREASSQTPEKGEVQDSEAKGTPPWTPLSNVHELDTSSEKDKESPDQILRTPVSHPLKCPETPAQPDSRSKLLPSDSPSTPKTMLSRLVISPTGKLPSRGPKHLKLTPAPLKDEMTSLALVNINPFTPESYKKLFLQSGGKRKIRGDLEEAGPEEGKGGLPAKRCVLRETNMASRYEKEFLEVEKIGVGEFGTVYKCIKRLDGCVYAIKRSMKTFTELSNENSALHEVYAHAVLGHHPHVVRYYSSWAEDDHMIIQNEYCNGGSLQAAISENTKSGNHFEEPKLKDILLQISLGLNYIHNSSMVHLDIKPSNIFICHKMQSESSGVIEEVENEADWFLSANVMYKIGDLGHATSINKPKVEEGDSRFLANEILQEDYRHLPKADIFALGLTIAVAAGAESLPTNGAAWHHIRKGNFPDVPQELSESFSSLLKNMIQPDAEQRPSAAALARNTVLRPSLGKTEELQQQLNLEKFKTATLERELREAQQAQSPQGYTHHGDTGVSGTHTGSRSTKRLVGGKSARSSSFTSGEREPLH
# [18] = target: Tyrosine-protein kinase Yes (Homo sapiens) (UniProt P07947); assay: Inhibition of recombinant full-length human Yes at 1 uM using poly(Glu,Tyr) 4:1 as substrate after 40 mins in presence of [gamma-33P]ATP by scintillation counting method
# [19] = target: Casein kinase II subunit alpha (Homo sapiens) (UniProt P68400); assay: Inhibition of recombinant full-length human CK2alpha1 at 1 uM using RRRDDDSDDD as substrate after 40 mins in presence of [gamma-33P]ATP by scintillation counting method
# [20] = target: Dual specificity mitogen-activated protein kinase kinase 1 (Homo sapiens) (UniProt Q02750); assay: Inhibition of recombinant full-length human MEK1 at 1 uM using inactive MAPK2 as substrate after 40 mins in presence of [gamma-33P]ATP by scintillation counting method
# [21] = target: Beta-adrenergic receptor kinase 1 (Homo sapiens) (UniProt P25098); assay: Inhibition of recombinant full-length human GRK2 at 1 uM using casein as substrate after 40 mins in presence of [gamma-33P]ATP by scintillation counting method
# Chain of Beta-adrenergic receptor kinase 1 (Homo sapiens) (P25098 whole entry, the tested form may be a part): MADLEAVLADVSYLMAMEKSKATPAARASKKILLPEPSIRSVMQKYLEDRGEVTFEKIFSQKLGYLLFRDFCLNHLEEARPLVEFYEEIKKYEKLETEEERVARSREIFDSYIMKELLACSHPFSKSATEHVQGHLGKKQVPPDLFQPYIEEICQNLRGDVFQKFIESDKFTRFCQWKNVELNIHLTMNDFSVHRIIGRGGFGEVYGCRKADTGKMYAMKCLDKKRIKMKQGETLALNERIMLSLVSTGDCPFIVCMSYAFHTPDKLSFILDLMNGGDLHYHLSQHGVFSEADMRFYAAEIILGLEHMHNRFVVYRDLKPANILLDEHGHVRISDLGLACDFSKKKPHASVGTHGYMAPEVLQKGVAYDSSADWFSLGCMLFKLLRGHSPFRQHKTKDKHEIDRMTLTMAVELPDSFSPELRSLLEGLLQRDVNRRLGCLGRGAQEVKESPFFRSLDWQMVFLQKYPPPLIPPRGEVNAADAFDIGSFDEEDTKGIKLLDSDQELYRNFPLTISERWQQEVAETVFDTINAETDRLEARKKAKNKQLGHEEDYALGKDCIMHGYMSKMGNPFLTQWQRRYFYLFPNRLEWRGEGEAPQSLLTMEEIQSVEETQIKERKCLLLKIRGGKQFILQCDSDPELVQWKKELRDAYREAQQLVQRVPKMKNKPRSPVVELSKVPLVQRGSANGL
# [22] = target: Fibroblast growth factor receptor 1 (Homo sapiens) (UniProt P11362); assay: Inhibition of recombinant human FGFR1 (456 to 765 residues) at 1 uM using KKKSPGEYVNIEFG as substrate after 40 mins in presence of [gamma-33P]ATP by scintillation counting method
# [23] = target: PI3K p110 beta/p85 alpha (Mus musculus) (UniProt P26450+Q8BTI9); assay: Inhibition of recombinant full-length mouse p110b/p85a at 1 uM using phosphatidylinositol 4,5-bisphosphate as substrate after 40 mins in presence of [gamma-33P]ATP by scintillation counting method; format: protein-complex assay
# [24] = target: Tyrosine-protein kinase ABL2 (Mus musculus) (UniProt Q4JIM5); assay: Inhibition of A562 insertion recombinant mouse ARG (27 to end residues) at 1 uM using EAIYAAPFAKKK as substrate after 40 mins in presence of [gamma-33P]ATP by scintillation counting method
# Chain of Tyrosine-protein kinase ABL2 (Mus musculus) (Q4JIM5 whole entry): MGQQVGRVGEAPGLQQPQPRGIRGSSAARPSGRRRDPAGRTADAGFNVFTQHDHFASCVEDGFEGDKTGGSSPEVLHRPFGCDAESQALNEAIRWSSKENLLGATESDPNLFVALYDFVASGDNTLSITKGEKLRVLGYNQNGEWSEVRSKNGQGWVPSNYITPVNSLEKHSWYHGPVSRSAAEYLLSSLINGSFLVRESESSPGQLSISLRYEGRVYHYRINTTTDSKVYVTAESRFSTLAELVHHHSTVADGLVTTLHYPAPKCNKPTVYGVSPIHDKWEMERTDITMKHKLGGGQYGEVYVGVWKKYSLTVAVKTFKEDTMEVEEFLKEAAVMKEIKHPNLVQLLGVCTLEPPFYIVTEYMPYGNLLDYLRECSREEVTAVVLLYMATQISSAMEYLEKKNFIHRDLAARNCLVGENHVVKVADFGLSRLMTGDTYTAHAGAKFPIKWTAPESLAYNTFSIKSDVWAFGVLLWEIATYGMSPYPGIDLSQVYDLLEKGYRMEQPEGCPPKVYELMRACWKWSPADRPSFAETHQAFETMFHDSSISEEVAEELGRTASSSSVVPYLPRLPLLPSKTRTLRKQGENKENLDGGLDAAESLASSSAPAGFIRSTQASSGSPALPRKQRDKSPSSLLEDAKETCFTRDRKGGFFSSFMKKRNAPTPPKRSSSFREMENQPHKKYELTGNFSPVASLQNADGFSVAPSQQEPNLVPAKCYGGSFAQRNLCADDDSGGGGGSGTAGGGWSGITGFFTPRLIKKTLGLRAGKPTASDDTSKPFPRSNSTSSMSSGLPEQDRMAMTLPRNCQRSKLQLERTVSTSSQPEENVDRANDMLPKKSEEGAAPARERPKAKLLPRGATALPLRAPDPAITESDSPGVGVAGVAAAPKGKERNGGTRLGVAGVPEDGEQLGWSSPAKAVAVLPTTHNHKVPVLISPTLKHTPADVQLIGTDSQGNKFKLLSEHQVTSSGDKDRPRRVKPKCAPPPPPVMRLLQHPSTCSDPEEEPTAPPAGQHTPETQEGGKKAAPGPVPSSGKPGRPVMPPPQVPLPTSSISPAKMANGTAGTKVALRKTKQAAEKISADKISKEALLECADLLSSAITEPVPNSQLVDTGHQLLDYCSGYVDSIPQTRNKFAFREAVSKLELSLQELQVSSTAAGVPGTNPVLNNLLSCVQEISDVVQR
# Mus musculus = assay: AUC in mouse at 10 mg/kg, po; format: ADME, organism-based; conditions: in vivo
structure (smiles),measurement,setting,value
CS(=O)(=O)c1ccc(-n2nc(-c3cnc4[nH]ccc4c3)c3c(N)ncnc32)cc1,inhibition,[1],18%
same,inhibition,[2],-7%
same,inhibition,[3],3%
same,inhibition,[4],5%
same,inhibition,[5],77%
same,"remaining at 0.5 h, 1 µM",[6],83%
same,inhibition,[7],-10%
same,inhibition,[8],1%
same,inhibition,[9],-8%
same,inhibition,[10],-4%
same,inhibition,[11],-6%
same,inhibition,[12],-2%
same,inhibition,[13],43%
same,inhibition,[14],55%
same,inhibition,[15],-1%
same,inhibition,[16],-3%
same,inhibition,[17],-3%
same,inhibition,[18],92%
same,inhibition,[19],19%
same,inhibition,[20],-1%
same,inhibition,[21],5%
same,inhibition,[22],63%
same,inhibition,[23],0%
same,inhibition,[24],69%
same,AUC,Mus musculus,0.212 µM·h

# Reference: ChEMBL document CHEMBL4190187, “Discovery of pyrazolopyrimidine derivatives as novel inhibitors of ataxia telangiectasia and rad3 related protein (ATR)” (Bioorg Med Chem Lett, 2017)
